The values that follow are results of earlier work, collected in PubChem BioAssay AID1259409 (Chemical Carcinogenesis Research Information System (CCRIS), 2018).

The subject of the data set is rodent chemically induced tumor inhibition, incidence and multiplicity. Nature of the data set: CCRIS tumor inhibitor studies.

SMILES strings stand for the structures.

`CCC(C)SSC(C)CC` (stereo unspecified): for the setting “Carcinogen: BENZO[A]PYENE, 50-32-8, Dose [Inhibitor]: 0.06 MMOL/G DIET DAILY FOR 6 WK CONCURRENT WITH CARCINOGEN TREATMENT FOLLOWED BY 14 WK ON STANDARD DIET (STUDY DURATION:, Route [Inhibitor]: ORAL, Species: MOUSE, Strain/Sex: ICR/FEMALE, Target Tissue: Type of Lesion: FORESTOMACH: NEOPLASM, Dose [Carcinogen]: 0.3 MG/G IN DIET DAILY FOR 6 WK, Promoter: NONE USED”, the “tumour outcome (control, treated, inhibition, significance)” value is listed as 40%, 41%, -3%, not significant.
As for `NCCCN`, the “tumour outcome (control, treated, inhibition, significance)” value is 20/20 (100%), 11/20 (55%), 45%, p<0.01 (Carcinogen: AZOXYMETHANE, 25843-45-2, Dose [Inhibitor]: 0, 2.5 G/L IN DRINKING WATER AD LIBITUM FOR DURATION OF STUDY (STUDY DURATION: 40 WK), Route [Inhibitor]: ORAL, Species: RAT, Strain/Sex: WISTAR/MALE, Target Tissue: Type of Lesion: INTESTINE: TUMOR, Dose [Carcinogen]: 7.4 MG/KG BW IN 0.9% SALINE 1/WK FOR 10 WK, Promoter: BOMBESIN, 31362-50-2); 14/18 (78%), 6/18 (33%), 58%, p<0.02 (Carcinogen: AZOXYMETHANE, 25843-45-2, Dose [Inhibitor]: 0, 2.5 G/L IN DRINKING WATER FOR DURATION OF STUDY (STUDY DURATION: 45 WK), Route [Inhibitor]: ORAL, Species: RAT, Strain/Sex: WISTAR/MALE, Target Tissue: Type of Lesion: COLON: TUMOR, Dose [Carcinogen]: 7.4 MG/KG BW IN 0.9% SALINE 1/WK FOR 10 WK, Promoter: VASOACTIVE INTESTINAL PEPTIDE, 37221-79-7); 5/17 (29%), 3/17 (18%), 39%, not significant (Carcinogen: N-BUTYL-N-(4-HYDROXYBUTYL)NITROSAMINE [3817-11-6], Dose [Inhibitor]: 2 G/L IN DRINKING WATER FOR 32 WK BEGINNING 2 D POST LAST CARCINOGEN DOSE (STUDY DURATION: 36 WK), Route [Inhibitor]: ORAL, Species: RAT, Strain/Sex: F344/MALE, Target Tissue: Type of Lesion: URINARY BLADDER: CARCINOMA, Dose [Carcinogen]: 0.05% IN DRINKING WATER FOR 4 WK (STUDY DURATION: 36 WK), Promoter: NONE); 15/15 (100%), 18/18 (100%), 0%, not significant (Carcinogen: N-BUTYL-N-(4-HYDROXYBUTYL)NITROSAMINE [3817-11-6], Dose [Inhibitor]: 2 G/L IN DRINKING WATER FOR 32 WK BEGINNING 2 D POST LAST CARCINOGEN DOSE (STUDY DURATION: 36 WK), Route [Inhibitor]: ORAL, Species: RAT, Strain/Sex: F344/MALE, Target Tissue: Type of Lesion: URINARY BLADDER: CARCINOMA, Dose [Carcinogen]: 0.05% IN DRINKING WATER FOR 4 WK (STUDY DURATION: 36 WK), Promoter: SODIUM L-ASCORBATE [134-03-2]); 15/15 (100%), 18/18 (100%), 0%, not significant (Carcinogen: N-BUTYL-N-(4-HYDROXYBUTYL)NITROSAMINE [3817-11-6], Dose [Inhibitor]: 2 G/L IN DRINKING WATER FOR 32 WK BEGINNING 2 D POST LAST CARCINOGEN DOSE (STUDY DURATION: 36 WK), Route [Inhibitor]: ORAL, Species: RAT, Strain/Sex: F344/MALE, Target Tissue: Type of Lesion: URINARY BLADDER: PAPILLOMA, Dose [Carcinogen]: 0.05% IN DRINKING WATER FOR 4 WK (STUDY DURATION: 36 WK), Promoter: SODIUM L-ASCORBATE [134-03-2]); 14/20 (70%), 6/20 (30%), 57%, p<0.05 (Carcinogen: N-METHYL-N'-NITRO-N-NITROSOGUANIDINE, 70-25-7, Dose [Inhibitor]: 0, 2.5 G/L IN DRINKING WATER BEGINNING 1 WK POST CARCINOGEN TREATMENT AND CONTINUING FOR DURATION OF STUDY (STUDY DURATI, Route [Inhibitor]: ORAL, Species: RAT, Strain/Sex: WISTAR/MALE, Target Tissue: Type of Lesion: STOMACH: ADENOCARCINOMA, Dose [Carcinogen]: 50 UG/ML IN DRINKING WATER FOR 25 WK, Promoter: BOMBESIN, 31362-50-2). Further, the “tumour outcome (control, treated, inhibition, significance)” value is, setting by setting: (Carcinogen: N-METHYL-N'-NITRO-N-NITROSOGUANIDINE, 70-25-7, Dose [Inhibitor]: 0, 2.5 G/L IN DRINKING WATER FOR 26 WK BEGINNING 1 WK POST CARCINOGEN TREATMENT (STUDY DURATION: 52 WK), Route [Inhibitor]: ORAL, Species: RAT, Strain/Sex: WISTAR/MALE, Target Tissue: Type of Lesion: GLANDULAR STOMACH: ADENOCARCINOMA, Dose [Carcinogen]: 25 UG/ML IN DRINKING WATER FOR 25 WK, Promoter: SODIUM CHLORIDE, 7647-14-5) 14/19 (74%), 6/20 (30%), 59%, p<0.02; (Carcinogen: N-METHYL-N'-NITRO-N-NITROSOGUANIDINE, 70-25-7, Dose [Inhibitor]: 0, 25 G/L IN DRINKING WATER FOR 26 WK BEGINNING 1/WK POST CARCINOGEN TREATMENT (STUDY DURATION: 52 WK), Route [Inhibitor]: ORAL, Species: RAT, Strain/Sex: WISTAR/MALE, Target Tissue: Type of Lesion: STOMACH: ADENOCARCINOMA, Dose [Carcinogen]: 25 UG/ML IN DRINKING WATER FOR 25 WK, Promoter: TYROSINE METHYL ESTER, 1080-06-4) 15/18 (83%), 8/18 (44%), 47%, p<0.05.
For the compound `C[Se+](C)CC(=O)[O-]`, the “tumour outcome (control, treated, inhibition, significance)” value (Carcinogen: 7,12-DIMETHYLBENZ[A]ANTHRACENE, 57-97-6, Dose [Inhibitor]: 0, 0.000025 MOL/KG DIET BEGINNING 2 WK PRIOR TO CARCINOGEN AND CONTINUED FOR STUDY DURATION (STUDY DURATION: 25 WK), Route [Inhibitor]: ORAL, Species: RAT, Strain/Sex: CD-1/FEMALE, Target Tissue: Type of Lesion: MAMMARY GLAND: ADENOCARCINOMA, Dose [Carcinogen]: 10 MG ONCE, Promoter: NONE USED) is listed as 20/25 (80%), 11/25 (44%), 45%, p<0.05.
On to `CC(C)(C)N=C=O`, for which the “tumour outcome (control, treated, inhibition, significance)” value (Carcinogen: 7,12-DIMETHYLBENZ(A)ANTHRACENE, 57-97-6, Dose [Inhibitor]: 0.013 MMOL/G IN DIET BEGINNING 1 WK AFTER CARCINOGEN ADMINISTRATION (STUDY DURATION: 23 WK), Route [Inhibitor]: ORAL, Species: RAT, Strain/Sex: SPRAGUE-DAWLEY/FEMALE, Target Tissue: Type of Lesion: MAMMARY GLAND: TUMOR, Dose [Carcinogen]: 12 MG DMBA IN 1.0 ML OLIVE OIL ONCE, Promoter: NONE USED) was 100%, 50%, 50%, p<0.001.
Consider `CCOC(=O)c1ccc(/C=C(\C)c2ccc3c(c2)C(C)(C)CCC3(C)C)cc1`, for which the “tumour outcome (control, treated, inhibition, significance)” value (Carcinogen: 7,12-DIMETHYLBENZ[A]ANTHRACENE, 57-97-6, Dose [Inhibitor]: 0, 24 UG/KG IN ARACHIS OIL (5 ML/KG) REDUCED TO 16 UG/KG AFTER 4 WK 5/WK BEGINNING 1 D POST CARCINOGEN DOSE (STUDY DURAT, Route [Inhibitor]: GAVAGE, Species: RAT, Strain/Sex: SPRAGUE-DAWLEY/FEMALE, Target Tissue: Type of Lesion: MAMMARY GLAND: TUMOR, Dose [Carcinogen]: 15 MG IN ARACHIS OIL ONCE AT 50 D OF AGE, Promoter: NONE USED) is on record as 96%, 72%, 25%, not calculated.
On to `COc1ccc2cc(CCC(C)=O)ccc2c1`, for which the “tumour outcome (control, treated, inhibition, significance)” value (Carcinogen: N-METHYL-N-NITROSOUREA, 684-93-5, Dose [Inhibitor]: 0, 0.03% IN DIET FOR 24 WK BEGINNING 1 WK POST CARCINOGEN DOSE (STUDY DURATION: 25 WK), Route [Inhibitor]: ORAL, Species: RAT, Strain/Sex: SPRAGUE-DAWLEY/FEMALE, Target Tissue: Type of Lesion: MAMMARY GLAND: TUMOR, Dose [Carcinogen]: 50 MG/KG ONCE, Promoter: NONE USED) is recorded as 24/30 (80%), 13/31 (42%), 48%, p<0.005.
Consider `Clc1ccc(COC(Cn2ccnc2)c2ccc(Cl)cc2Cl)c(Cl)c1` (stereo unspecified), for which the “tumour outcome (control, treated, inhibition, significance)” value is, setting by setting: (Carcinogen: 7,12-DIMETHYLBENZ[A]ANTHRACENE, 57-97-6, Dose [Inhibitor]: 0, 1000 PPM IN DIET FOR DURATION OF STUDY BEGINNING 1 WK PRIOR TO CARCINOGEN DOSE (STUDY DURATION: 107 D), Route [Inhibitor]: ORAL, Species: RAT, Strain/Sex: SPRAGUE-DAWLEY/FEMALE, Target Tissue: Type of Lesion: MAMMARY GLAND: ADENOCARCINOMA, Dose [Carcinogen]: 12 MG ONCE, Promoter: NONE USED) 96%, 84%, 13%, not significant; (Carcinogen: 7,12-DIMETHYLBENZ[A]ANTHRACENE, 57-97-6, Dose [Inhibitor]: 0, 2000 PPM IN DIET FOR DURATION OF STUDY BEGINNING 1 WK PRIOR TO CARCINOGEN DOSE (STUDY DURATION: 107 D), Route [Inhibitor]: ORAL, Species: RAT, Strain/Sex: SPRAGUE-DAWLEY/FEMALE, Target Tissue: Type of Lesion: MAMMARY GLAND: ADENOCARCINOMA, Dose [Carcinogen]: 12 MG ONCE, Promoter: NONE USED) 96%, 68%, 29%, not calculated.
Turning to `NC(N)=S`, the outcome (Carcinogen: N-BIS-(2-HYDROXYPROPYL)NITROSAMINE [53609-64-6], Dose [Inhibitor]: 0, 0.2% IN DIET 4 WK BEGINNING 1 WK POST CARCINOGEN DOSE (STUDY DURATION: 5 WK), Route [Inhibitor]: ORAL, Species: RAT, Strain/Sex: F344/DUCRJ/MALE, Target Tissue: Type of Lesion: THYROID GLAND: ADENOMATOUS GROWTH PATTERN, Dose [Carcinogen]: 2800 MG/KG BW ONCE (STUDY DURATION: 5 WK), Promoter: NONE) is reported as 0%, 30%, -100%, not significant.
